Patent US10239884B2, “Coelenterazine compounds and uses thereof” (KEIO UNIVERSITY, priority 2017, dated 2019)

Tests used:
RLuc8 [1] = molecular target: T1, RLuc8 (Renilla reniformis, UniProt P27652, A143M/A55T/C124A/K136R/M185V/M253L/S130A/S287L); assay type: biochemical; settings: 2 μM substrate in PBS pH 7.4, cell lysate, maximum intensity over 1 second, relative value
T1 construct: expressed in transfected cells; host or cells: COST cells (so in the source)
Excerpt: (§1) The luciferases were respectively expressed in COST cells using an expression vector (pcDNA3.1(+), commercially available from Invitrogen) comprising the sequence encoding native Renilla Luciferase (RLuc) (trade name pGL4.75, commercially available from Promega) or an expression vector (trade name pcDNA3.1(+), commercially available from Invitrogen) comprising the sequence encoding a RLuc derivative RLuc8 or RLuc8.6-535 (Reference: Loening, A. M. et al., Nat. Methods, 2007, 4, 641-643.). The cells were lysed using a Renilla Luciferase Lysis Buffer (E291A, Promega), and the lysate was directly used as an enzyme solution. […] Bioluminescence was measured according to the protocol of Renilla Luciferase Assay System (Cat. No. E 2810; Promega). The luminescent substrate was dissolved in methanol to prepare a 2 mM solution. The solution was diluted to 2 μM with PBS buffer (pH 7.4), and the diluted solution was used as a substrate solution. To 200 μL of the substrate solution, 4 μL of the cell lysate containing RLuc, RLuc 8 or RLuc8.6-535 was added to start the luminescent reaction. The luminescence intensity was measured with a Berthold Lumat LB 9507 for 1 second, and indicated by the maximum luminescence intensity (I). The luminescence intensity of the native CTZ by RLuc8 was set to be 1.0, and the other bioluminescence intensities were normalized to be relative values to that of native CTZ.

RLuc8 [2] = molecular target: T1, RLuc8; assay type: biochemical; settings: bioluminescence spectrum, ATTO LumiFL
Protocol: (§2) As in the method for measuring bioluminescence intensity described above, luminescence spectrum was measured according to the protocol of Renilla Luciferase Assay System (Cat. No. E 2810; Promega). The luminescence spectrum was measured using ATTO LumiFL. The maximum luminescence intensities were normalized to be relative values to 1.0 upon determination of the maximum luminescence wavelength.

RLuc8.6-535 [3] = molecular target: T2, RLuc8.6-535 (Renilla reniformis, UniProt P27652, A123S/A143M/A55T/C124A/D154M/D162E/E155G/I163L/K136R/M185L/M253L/S130A/S287L); assay type: biochemical; set-up: expressed in transfected cells; host or cells: COST cells (so in the source); settings: 2 μM substrate in PBS pH 7.4, cell lysate, maximum intensity over 1 second, relative value
T2 sequence (P27652 whole entry A55T/A123S/C124A/S130A/K136R/A143M/D154M/E155G/D162E/I163L/M185L/M253L/S287L): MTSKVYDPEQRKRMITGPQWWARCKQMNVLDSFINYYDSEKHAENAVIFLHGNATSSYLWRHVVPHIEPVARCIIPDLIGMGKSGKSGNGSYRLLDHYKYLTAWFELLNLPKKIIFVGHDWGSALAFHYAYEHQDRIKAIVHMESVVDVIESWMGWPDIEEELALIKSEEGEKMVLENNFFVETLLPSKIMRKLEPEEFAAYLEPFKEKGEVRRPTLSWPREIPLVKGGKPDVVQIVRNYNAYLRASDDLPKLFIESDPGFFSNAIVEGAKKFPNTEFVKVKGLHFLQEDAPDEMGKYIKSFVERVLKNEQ
Excerpt: as §1

RLuc8.6-535 [4] = molecular target: T2, RLuc8.6-535; assay type: biochemical; set-up: expressed in transfected cells; host or cells: COST cells (so in the source); settings: bioluminescence spectrum, ATTO LumiFL
Protocol: as §2

[5] = molecular target: T3, Renilla Luciferase (RLuc) (Renilla reniformis, UniProt P27652); settings: cited from earlier work
T3 sequence (P27652 1-311): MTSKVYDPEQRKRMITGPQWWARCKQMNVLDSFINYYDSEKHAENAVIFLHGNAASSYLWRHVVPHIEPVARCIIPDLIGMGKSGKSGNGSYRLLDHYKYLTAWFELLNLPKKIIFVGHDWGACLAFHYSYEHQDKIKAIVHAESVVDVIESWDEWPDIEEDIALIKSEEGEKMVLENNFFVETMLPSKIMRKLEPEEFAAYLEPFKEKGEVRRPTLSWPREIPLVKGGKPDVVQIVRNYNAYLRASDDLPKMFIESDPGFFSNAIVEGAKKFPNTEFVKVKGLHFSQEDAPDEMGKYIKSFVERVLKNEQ

T1 sequence (P27652 whole entry A55T/C124A/S130A/K136R/A143M/M185V/M253L/S287L): as the sequence (P27652 whole entry A55T/A123S/C124A/S130A/K136R/A143M/D154M/E155G/D162E/I163L/M185L/M253L/S287L) above, with S123A, M154D, G155E, E162D, L163I, L185V counted along it

O=c1c(Cc2ccccc2)nc2c(Cc3ccccc3)[nH]c(-c3ccc(OCCO)cc3)cn1-2 [6-Alkyl2OH-2H-CTZ]
RLuc8 luminescence intensity (%) (RLuc8 [1]): 6.21%
RLuc8 half-width (nm) (RLuc8 [2]): [65] nm
RLuc8 maximum luminescence wavelength (nm) (RLuc8 [2]): 413 nm
RLuc8.6-535 luminescence intensity (%) (RLuc8.6-535 [3]): 6.24%
RLuc8.6-535 half-width (nm) (RLuc8.6-535 [4]): [68] nm
RLuc8.6-535 maximum luminescence wavelength (nm) (RLuc8.6-535 [4]): 407 nm

O=c1c(Cc2ccc(O)cc2)nc2c(Cc3ccccc3)[nH]c(-c3ccc(OCCO)cc3)cn1-2 [6-Alkyl2OH-CTZ]
RLuc8 luminescence intensity (%) (RLuc8 [1]): 15.0%
RLuc8 half-width (nm) (RLuc8 [2]): [59] nm
RLuc8 maximum luminescence wavelength (nm) (RLuc8 [2]): 411 nm
RLuc8.6-535 luminescence intensity (%) (RLuc8.6-535 [3]): 43.2%
RLuc8.6-535 half-width (nm) (RLuc8.6-535 [4]): [56] nm
RLuc8.6-535 maximum luminescence wavelength (nm) (RLuc8.6-535 [4]): 411 nm

CCCCOc1ccc(-c2cn3c(=O)c(Cc4ccccc4)nc-3c(Cc3ccccc3)[nH]2)cc1 [6-Alkyl3-2H-CTZ]
RLuc8 luminescence intensity (%) (RLuc8 [1]): 2.00%
RLuc8 half-width (nm) (RLuc8 [2]): [50] nm
RLuc8 maximum luminescence wavelength (nm) (RLuc8 [2]): 411 nm
RLuc8.6-535 luminescence intensity (%) (RLuc8.6-535 [3]): 28.4%
RLuc8.6-535 half-width (nm) (RLuc8.6-535 [4]): [53] nm
RLuc8.6-535 maximum luminescence wavelength (nm) (RLuc8.6-535 [4]): 413 nm

O=c1c(Cc2ccccc2)nc2c(Cc3ccccc3)[nH]c(-c3ccc(OCCCO)cc3)cn1-2 [6-Alkyl3OH-2H-CTZ]
RLuc8 luminescence intensity (%) (RLuc8 [1]): 5.03%
RLuc8 half-width (nm) (RLuc8 [2]): [65] nm
RLuc8 maximum luminescence wavelength (nm) (RLuc8 [2]): 411 nm
RLuc8.6-535 luminescence intensity (%) (RLuc8.6-535 [3]): 23.9%
RLuc8.6-535 half-width (nm) (RLuc8.6-535 [4]): [56] nm
RLuc8.6-535 maximum luminescence wavelength (nm) (RLuc8.6-535 [4]): 413 nm

COCCCOc1ccc(-c2cn3c(=O)c(Cc4ccccc4)nc-3c(Cc3ccccc3)[nH]2)cc1 [6-Alkyl3OMe-2H-CTZ]
RLuc8 luminescence intensity (%) (RLuc8 [1]): 2.93%
RLuc8 half-width (nm) (RLuc8 [2]): [49] nm
RLuc8 maximum luminescence wavelength (nm) (RLuc8 [2]): 416 nm
RLuc8.6-535 luminescence intensity (%) (RLuc8.6-535 [3]): 29.3%
RLuc8.6-535 half-width (nm) (RLuc8.6-535 [4]): [53] nm
RLuc8.6-535 maximum luminescence wavelength (nm) (RLuc8.6-535 [4]): 413 nm

O=c1c(Cc2ccccc2)nc2c(Cc3ccccc3)[nH]c(-c3ccc(OCCCCO)cc3)cn1-2 [6-Alkyl4OH-2H-CTZ]
RLuc8 luminescence intensity (%) (RLuc8 [1]): 3.45%
RLuc8 half-width (nm) (RLuc8 [2]): [69] nm
RLuc8 maximum luminescence wavelength (nm) (RLuc8 [2]): 404 nm
RLuc8.6-535 luminescence intensity (%) (RLuc8.6-535 [3]): 23.9%
RLuc8.6-535 half-width (nm) (RLuc8.6-535 [4]): [68] nm
RLuc8.6-535 maximum luminescence wavelength (nm) (RLuc8.6-535 [4]): 405 nm

O=c1c(Cc2ccc(O)cc2)nc2c(Cc3ccccc3)[nH]c(-c3ccc(OCCCCO)cc3)cn1-2 [6-Alkyl4OH-CTZ]
RLuc8 luminescence intensity (%) (RLuc8 [1]): 11.8%
RLuc8 half-width (nm) (RLuc8 [2]): [69] nm
RLuc8 maximum luminescence wavelength (nm) (RLuc8 [2]): 404 nm
RLuc8.6-535 luminescence intensity (%) (RLuc8.6-535 [3]): 59.8%
RLuc8.6-535 half-width (nm) (RLuc8.6-535 [4]): [60] nm
RLuc8.6-535 maximum luminescence wavelength (nm) (RLuc8.6-535 [4]): 412 nm

O=c1c(Cc2ccccc2)nc2c(Cc3ccccc3)[nH]c(-c3ccc(OCCCCCO)cc3)cn1-2 [6-Alkyl5OH-2H-CTZ]
RLuc8 luminescence intensity (%) (RLuc8 [1]): 2.88%
RLuc8 half-width (nm) (RLuc8 [2]): [70] nm
RLuc8 maximum luminescence wavelength (nm) (RLuc8 [2]): 403 nm
RLuc8.6-535 luminescence intensity (%) (RLuc8.6-535 [3]): 18.0%
RLuc8.6-535 half-width (nm) (RLuc8.6-535 [4]): [68] nm
RLuc8.6-535 maximum luminescence wavelength (nm) (RLuc8.6-535 [4]): 406 nm

COCc1ccc(-c2cn3c(=O)c(Cc4ccccc4)nc-3c(Cc3ccccc3)[nH]2)cc1 [6-Ether-2H-CTZ, reference compound]
RLuc8 luminescence intensity (%) (RLuc8 [1]): 0.36%
RLuc8 maximum luminescence wavelength (nm) (RLuc8 [2]): (393) nm
RLuc8.6-535 luminescence intensity (%) (RLuc8.6-535 [3]): 2.17%
RLuc8.6-535 half-width (nm) (RLuc8.6-535 [4]): [53] nm
RLuc8.6-535 maximum luminescence wavelength (nm) (RLuc8.6-535 [4]): 406 nm

CCc1ccc(-c2cn3c(=O)c(Cc4ccccc4)nc-3c(Cc3ccccc3)[nH]2)cc1 [6-Ethyl-2H-CTZ]
RLuc8 luminescence intensity (%) (RLuc8 [1]): 0.62%
RLuc8 maximum luminescence wavelength (nm) (RLuc8 [2]): (402) nm
RLuc8.6-535 luminescence intensity (%) (RLuc8.6-535 [3]): 18.0%
RLuc8.6-535 half-width (nm) (RLuc8.6-535 [4]): [50] nm
RLuc8.6-535 maximum luminescence wavelength (nm) (RLuc8.6-535 [4]): 411 nm

Cc1ccc(-c2cn3c(=O)c(Cc4ccccc4)nc-3c(Cc3ccccc3)[nH]2)cc1 [6-Methyl-2H-CTZ]
RLuc8 luminescence intensity (%) (RLuc8 [1]): 1.44%
RLuc8 half-width (nm) (RLuc8 [2]): [45] nm
RLuc8 maximum luminescence wavelength (nm) (RLuc8 [2]): 408 nm
RLuc8.6-535 luminescence intensity (%) (RLuc8.6-535 [3]): 25.3%
RLuc8.6-535 half-width (nm) (RLuc8.6-535 [4]): [49] nm
RLuc8.6-535 maximum luminescence wavelength (nm) (RLuc8.6-535 [4]): 411 nm

O=c1c(Cc2ccccc2)nc2c(Cc3ccccc3)[nH]c(-c3ccccc3)cn1-2 [DeepBlueC (trade name), reference compound]
RLuc8 luminescence intensity (%) (RLuc8 [1]): 2.30%
RLuc8 half-width (nm) (RLuc8 [2]): [57] nm
RLuc8 maximum luminescence wavelength (nm) (RLuc8 [2]): 416 nm
luminescence intensity relative to the native RLuc luminescence system [5]: about 4%
shift of luminescence wavelength to the shorter wavelength side compared to native CTZ [5]: about 80 nm
luminescence wavelength ([5]; emits light at around): around 400 nm
RLuc8.6-535 luminescence intensity (%) (RLuc8.6-535 [3]): 5.80%
RLuc8.6-535 half-width (nm) (RLuc8.6-535 [4]): [51] nm
RLuc8.6-535 maximum luminescence wavelength (nm) (RLuc8.6-535 [4]): 410 nm

CCCCOc1ccc(-c2cn3c(=O)c(Cc4ccc(O)cc4)nc-3c(Cc3ccccc3)[nH]2)cc1 [Example 6-Alkyl3-CTZ]
RLuc8 luminescence intensity (%) (RLuc8 [1]): 8.07%
RLuc8 half-width (nm) (RLuc8 [2]): [46] nm
RLuc8 maximum luminescence wavelength (nm) (RLuc8 [2]): (413) nm
RLuc8.6-535 luminescence intensity (%) (RLuc8.6-535 [3]): 39.6%
RLuc8.6-535 half-width (nm) (RLuc8.6-535 [4]): [60] nm
RLuc8.6-535 maximum luminescence wavelength (nm) (RLuc8.6-535 [4]): 412 nm

COCc1ccc(-c2cn3c(=O)c(Cc4ccc(O)cc4)nc-3c(Cc3ccccc3)[nH]2)cc1 [Example 6-Ether-CTZ, reference compound]
RLuc8 luminescence intensity (%) (RLuc8 [1]): 0.85%
RLuc8 maximum luminescence wavelength (nm) (RLuc8 [2]): (420) nm
RLuc8.6-535 luminescence intensity (%) (RLuc8.6-535 [3]): 8.94%
RLuc8.6-535 half-width (nm) (RLuc8.6-535 [4]): [49] nm
RLuc8.6-535 maximum luminescence wavelength (nm) (RLuc8.6-535 [4]): 411 nm

CCc1ccc(-c2cn3c(=O)c(Cc4ccc(O)cc4)nc-3c(Cc3ccccc3)[nH]2)cc1 [Example 6-Ethyl-CTZ]
RLuc8 luminescence intensity (%) (RLuc8 [1]): 2.68%
RLuc8 maximum luminescence wavelength (nm) (RLuc8 [2]): (410) nm
RLuc8.6-535 luminescence intensity (%) (RLuc8.6-535 [3]): 29.4%
RLuc8.6-535 half-width (nm) (RLuc8.6-535 [4]): [60] nm
RLuc8.6-535 maximum luminescence wavelength (nm) (RLuc8.6-535 [4]): 406 nm
